Test results published in patent US4704380A, “Method of stimulating the growth of macrophage-like cells utilizing mitogenic peptides” (Washington University, priority 1987, dated 1987).

Key:
Format in all cases: cell-based
[1] = system: P388D1 murine macrophage-like cell line; assay: 3[H]-TdR incorporation in growth-arrested P388D1 cells
Protocol: (§1) The growth stimulation of macrophage-like cells can be determined by measuring the thymidine uptake of the cells at varying concentrations of the mitogenic peptides of the present invention. This was determined for several macrophage-like cell lines including J774, P388D1, RAW and PU5. These are well-known murine cell lines available, for example, from the American Type Culture Collection, Rockville, Md.
(§2) ^3 [H]-TdR incorporation. Various cell lines were plated in Dulbeccos's Modified Eagle Medium (DMEM) containing 10% fetal calf serum (FCS) in […] humidified atmosphere at 37° C. at an initial density of 5×10^5 per well in 24 well disposable plastic plates (Falcon, Oxnard, Calif.). Arrest of DNA synthesis (i.e., G0 /G1) was achieved by incubating the cells for 48 hours in serum-free DMEM containing 0.1% bovine serum albumin (BSA). The cells were then exposed to the peptide or to various […], or to FCS for 48 hours. Enhanced thymidine incorporation was assessed following a 2 hour pulse of N-methyl^3 [H]-TdR (1 μCi/ml). […]
(§3) The various cell lines employed in these tests were the murine macrophage-like cell lines J774, P388D1, RAW and PU5. […] The results are expressed as the mean of triplicate determinations.

[2] = system: J774 murine macrophage-like cells; assay: 3[H]-TdR incorporation in growth-arrested J774 cells
Protocol: as §1
^3 [H]-TdR incorporation. Various cell lines were plated in Dulbeccos's Modified Eagle Medium (DMEM) containing 10% fetal calf serum (FCS) in […] humidified atmosphere at 37° C. at an initial density of 5×10^5 per well in 24 well disposable plastic plates (Falcon, Oxnard, Calif.). Arrest of DNA synthesis (i.e., G0 /G1) was achieved by incubating the cells for 48 hours in serum-free DMEM containing 0.1% bovine serum albumin (BSA). The cells were then exposed to the peptide or to various […], or to FCS for 48 hours. Enhanced thymidine incorporation was assessed following a 2 hour pulse of N-methyl^3 [H]-TdR (1 μCi/ml). The cells were washed ×3 in PBS (phosphate buffered saline, pH 7.4) at 4, precipitated with 10% trichloroacetic acid (30 min at 4) and the insoluble material extracted ×2 with ETOH:ET2 O (3:1 v/v). The precipitate was solubilized in N NaOH and aliquots withdrawn for protein determinations using a dye-binding assay (Bio Rad Labs., Richmond, Calif.) and liquid scintillation spectrometry.
(§4) The various cell lines employed in these tests were the murine macrophage-like cell lines J774, P388D1, RAW and PU5. The various […] used in these tests were platelet-derived growth factor (PDGF), epidermal growth factor (EGF), fibroblast growth factor (FGF), and nerve growth factor (NGF). For background information on these known polypeptide growth factors see, for example, the recent review article by Kris et al., Biotechnology, February 1985, pp. 135-140; and the comprehensive review in Hormonal Proteins and Peptides, Ed. by Choh Hao Li, Vol. 12, "Growth Factors," Academic Press, 1984. EGF, NGF and FGF are commercially available from Biomedical Technologies, Cambridge, Massachusetts. In a representative test, 24 hours following exposure of the growth-arrested cells to optimal concentrations of the peptide (i.e., 10^-8 M), cell numbers inoreased approximately two-fold from a control value of […] cells/culture well. […] The results are set forth in FIG. 2 and in Table I, below. In FIG. 2, the baseline tritiated thymidine (^3 [H]-TdR) incorporation in quiescent J774 cells was 5000 cpm ± 420 s.e.m. (standard error of the mean) per well. The results are expressed as the mean of triplicate determinations.

[3] = system: PU5 murine macrophage-like cell line; assay: 3[H]-TdR incorporation in growth-arrested PU5 cells
Protocol: as §1, §2, §3

[4] = system: growth-arrested murine macrophage-like cells; assay: Cell number / proliferation of growth-arrested macrophage-like cells; details: for proliferation of macrophage-like cells: concentration ranges of up to 500 ng/ml
Text: as §4

[5] = system: RAW murine macrophage-like cell line; assay: 3[H]-TdR incorporation in growth-arrested RAW cells
Protocol: as §1, §2, §3

[6] = J774, test (1), >500 ng per well (highest concentration tested), 48 hours exposure, mean ± s.e.m.

H-YPPWNKNFTENDLL-OH [Peptide I, H-Tyr-Pro-Pro-Trp-Asn-Lys-Asn-Phe-Thr-Glu-Asn-Asp-Leu-Leu-OH]
Conc./Well: concentration yielding optimal specific 3[H]-TdR incorporation ([1]; P388D1): 10^ -7 M | 3[H]-TdR Incorporation/mg/Protein (% Increase) ([1]; P388D1, test (2), 10^-7 M per well, mean ± s.e.m.): 226± 22% | Conc./Well: concentration yielding optimal specific 3[H]-TdR incorporation ([2]; J774): 10^-8 M | 3[H]-TdR Incorporation/mg/Protein (% Increase) ([2]; J774, test (1), 10^-8 M per well, 48 hours exposure, mean ± s.e.m. of triplicate cultures): 140± 8.5% | 3[H]-TdR Incorporation/mg/Protein (% Increase) ([2]; J774, test (2), 10^-8 M per well, mean ± s.e.m.): 190± 12% | Conc./Well: concentration yielding optimal specific 3[H]-TdR incorporation ([3]; PU5): 10^ -6 M | 3[H]-TdR Incorporation/mg/Protein (% Increase) ([3]; PU5, test (2), 10^-6 M per well, mean ± s.e.m.): 112± 4.4% | increase in cell numbers over control ([4]; 24 hours after exposure of growth-arrested cells to 10^-8 M): approximately two-fold | Conc./Well: concentration yielding optimal specific 3[H]-TdR incorporation [5]: 10^ -8 M | 3[H]-TdR Incorporation/mg/Protein (% Increase) ([5]; test (2), 10^-8 M per well, mean ± s.e.m.): 276± 18%

PDGF [reference compound]
3[H]-TdR Incorporation/mg/Protein (% Increase) [2, 6]: 9.4± 0.3% | proliferation of macrophage-like cells [4]: failed to elicit proliferation

NGF: nerve growth factor, known polypeptide growth factor [reference compound]
3[H]-TdR Incorporation/mg/Protein (% Increase) [2, 6]: 0± 0.5% | proliferation of macrophage-like cells [4]: failed to elicit proliferation

EGF: epidermal growth factor, known polypeptide growth factor [reference compound]
3[H]-TdR Incorporation/mg/Protein (% Increase) [2, 6]: 5.2± 0.2% | proliferation of macrophage-like cells [4]: failed to elicit proliferation
